Reference: patent publication US20200341000A1, “METHOD OF SCREENING COMPOUNDS FOR TREATING CNS DISORDERS” (SAGE THERAPEUTICS, INC., priority 2017, published 2020)
Like-named read-outs stand apart in the source and are kept apart here.

Legend:
Assay type in all cases: cell-based
α4β3δ GABAA receptors = target: T1, α4β3δ GABAA receptors (Homo sapiens, UniProt O14764+P28472+P48169); test: Whole-cell patch clamp, potentiation of GABA EC20 currents at recombinant extrasynaptic-type receptors (CHO cells)
T1 construct: expressed in transfected cells; host or cells: CHO cells (transient transfection, Lipofectamine)
Protocol: (§1) Cellular electrophysiology was used to measure the pharmacological properties of ALLO, ganaxolone and SGE-516 in heterologous cell systems. Compounds were tested for their ability to affect GABA mediated currents at a submaximal agonist dose (GABA EC20=2 μM).
(§2) LTK cells were stably transfected with the α1β2γ2 subunits of the GABA receptor and CHO cells are transiently transfected with the α4β3γ subunits via the Lipofecatamine method. Cells were passaged at a confluence of about 50-80% and then seeded onto 35 mm sterile culture dishes containing 2 ml culture complete medium without antibiotics or antimycotics. Cells were cultivated at a density that enabled the recording of single cells without visible connections to other cells.
(§3) Whole-cell currents were measured with HEKA EPC-10 amplifiers using PatchMaster software. Bath solution for all experiments contained (in mM): NaCl 137, KCl 4, CaCl2 1.8, MgCl2 1, HEPES 10, D-Glucose 10, pH 7.4 with NaOH. Intracellular (pipette) solution contained (in mM): KCl 130, MgCl2 1, Mg-ATP 5, HEPES 10, EGTA 5, pH 7.2 with KOH. During experiments, cells and solutions were maintained at room temperature (19° C.-30° C.). For manual patchclamp recordings, cell culture dishes were placed on the dish holder of the microscope and continuously perfused (1 ml/min) with bath solution. After formation of a Gigaohm seal between the patch electrode and the cell (pipette resistance range: 2.5 MΩ-6.0MΩ; seal resistance range: >1 GΩ) the cell membrane across the pipette tip was ruptured to assure electrical access to the cell interior (whole-cell patch configuration).
(§4) Cells were voltage-clamped at a holding potential of −80 mV. GABAA receptors were activated by 2 μM GABA and compounds were sequentially applied at increasing concentrations for 30 s prior to a 2 s application of GABA. GABA and compounds were applied to cells via the Dynaflow perfusion system (Cellectricon, Sweden). Test compounds were dissolved in DMSO to form 10 mM stock solution and serially diluted to 0.01, 0.1, 1, and 10 μM in bath solution. […] All concentrations of test compound were tested on each cell. The relative percentage potentiation was defined as the peak amplitude in response to GABA EC20 in the presence of test compound divided by the peak amplitude in response to GABA EC20 alone, multiplied by 100.
(§5) ALLO and ganaxolone are known PAMs of both synaptic and extrasynaptic GABAAR-mediated currents. […] The α1β2γ2 or α4β3δ subunit combinations were chosen as representatives of typical synaptic and extrasynaptic GABAA receptors respectively.

[1] = test system: plasma membrane GABAARs containing the α4 and β3 subunits; test: Biotinylation, surface/total GABAAR subunits in hippocampal slices of WT mice
Protocol: Hippocampi were dissected out of acute slices from 8 to 12 week old C57/B16 mice and lysed with phosphate buffer including: 20 mM Tris-HCl, 150 mM NaCl, 5 mM EDTA, 10 mM NaF, 2 mM Na3VO4, 10 mM pyrophosphate, 0.1% SDS and 1% Triton after drug treatment. The β3 subunit was isolated using immunoprecipitation with β3 antibodies, after correction for protein content and the specific activity of labeling. Results were attained by SDS/PAGE followed by autoradiography (Abramian et al., 2010). For biotinylation experiments hippocampi were dissected out of acute slices from 8 to 12 week old C57/B16 mice and incubated in artificial cerebrospinal fluid (ACSF) described above at 30° C. for 1 h for recovery before experimentation. Slices were then placed on ice and incubated for 30 min with 1 mg/mL NHS-SS-biotin (Pierce). Excess biotin was removed by a 50 mM glycine quenching buffer, followed by washing of slices three times in ice-cold ACSF. The tissue was snap frozen on dry ice for 5 min, thawed at 4° C. and lysed. The lysates were solubilized with 2% Triton at 4° C. on a rotating wheel for 1 h. The insoluble material was removed by centrifugation, and 350-500 μg of protein lysate were incubated with NeutrAvidin beads (Pierce) for 18-24 h at 4° C. Bound material was eluted with sample buffer and subjected to SDS/PAGE and then immunoblotted with the indicated antibodies. Blots were then quantified using the CCD-based ChemiDoc XRS ? system. Antibodies against the β3 subunit and the phospho-β3 antibody were generated and verified by the laboratory of S.J.M. (Vien et al., 2015).
Hippocampal slices were treated as outlined above. Treated slices were then subject to biotinylation and lysis, and surface fractions were isolated on immobilized avidin. Surface (S) and total (T) fractions were immunoblotted with α4 and β3 subunit antibodies.
Consistent with the examples above, hippocampal slices from WT and S408/9A mice were treated for 20 min with 100 nM SGE-516 or vehicle (Con) and subjected to biotinylation followed by immunoblotting with β3 and α4 subunit antibodies. The ratio of surface/total (S/T) immunoreactivity was then normalized to levels seen in control (100%).

α1β2γ2 GABAA receptors = target: T2, α1β2γ2 GABAA receptors (Homo sapiens, UniProt P14867+P18507+P47870); test: Whole-cell patch clamp, potentiation of GABA EC20 currents at recombinant synaptic-type receptors (LTK cells); conditions: n = 3
T2 construct: expressed in transfected cells
Protocol: as §1, §2, §3, §4, §5

[2] = relative percentage potentiation of GABA EC20 peak current, n = 3
[3] = relative percentage potentiation of GABA EC20 peak current

T1 sequence (P48169 36-554): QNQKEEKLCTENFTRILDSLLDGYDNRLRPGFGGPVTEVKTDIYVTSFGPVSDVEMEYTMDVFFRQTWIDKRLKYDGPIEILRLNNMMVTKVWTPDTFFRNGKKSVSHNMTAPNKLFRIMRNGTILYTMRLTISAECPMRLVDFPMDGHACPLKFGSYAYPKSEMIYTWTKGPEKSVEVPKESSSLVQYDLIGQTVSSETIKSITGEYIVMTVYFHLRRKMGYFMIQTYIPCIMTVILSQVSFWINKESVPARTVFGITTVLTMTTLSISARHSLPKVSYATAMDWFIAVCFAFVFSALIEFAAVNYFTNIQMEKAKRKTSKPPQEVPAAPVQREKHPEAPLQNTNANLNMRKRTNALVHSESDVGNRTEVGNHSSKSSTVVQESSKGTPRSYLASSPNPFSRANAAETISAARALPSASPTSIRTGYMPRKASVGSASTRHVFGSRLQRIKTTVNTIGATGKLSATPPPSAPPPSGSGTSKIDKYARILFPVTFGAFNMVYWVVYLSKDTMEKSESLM
T1 sequence (P28472 26-473): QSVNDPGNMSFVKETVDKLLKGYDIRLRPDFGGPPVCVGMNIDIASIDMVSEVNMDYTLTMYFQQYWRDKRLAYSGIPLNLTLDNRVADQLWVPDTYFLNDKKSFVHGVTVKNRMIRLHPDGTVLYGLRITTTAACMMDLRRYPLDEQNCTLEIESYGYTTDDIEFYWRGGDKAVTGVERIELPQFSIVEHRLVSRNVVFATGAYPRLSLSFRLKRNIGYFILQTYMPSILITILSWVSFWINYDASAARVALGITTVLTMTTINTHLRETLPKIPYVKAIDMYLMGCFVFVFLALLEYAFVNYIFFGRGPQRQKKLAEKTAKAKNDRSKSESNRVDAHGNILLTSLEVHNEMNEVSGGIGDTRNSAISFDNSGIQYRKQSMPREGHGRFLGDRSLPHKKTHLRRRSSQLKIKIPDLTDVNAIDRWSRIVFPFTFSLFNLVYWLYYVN
T1 sequence (O14764 25-452): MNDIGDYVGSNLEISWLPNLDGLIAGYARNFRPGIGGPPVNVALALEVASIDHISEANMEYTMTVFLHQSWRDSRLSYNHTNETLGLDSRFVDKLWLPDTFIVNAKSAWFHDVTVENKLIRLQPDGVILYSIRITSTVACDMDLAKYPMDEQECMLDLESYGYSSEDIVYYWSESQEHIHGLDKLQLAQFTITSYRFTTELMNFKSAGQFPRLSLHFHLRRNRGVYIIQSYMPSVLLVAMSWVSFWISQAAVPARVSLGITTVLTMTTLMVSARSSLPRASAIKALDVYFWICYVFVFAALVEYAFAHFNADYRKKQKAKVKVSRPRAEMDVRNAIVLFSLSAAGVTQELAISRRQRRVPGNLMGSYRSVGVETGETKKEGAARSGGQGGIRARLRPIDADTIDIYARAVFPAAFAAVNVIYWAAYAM
T2 sequence (P14867 28-456): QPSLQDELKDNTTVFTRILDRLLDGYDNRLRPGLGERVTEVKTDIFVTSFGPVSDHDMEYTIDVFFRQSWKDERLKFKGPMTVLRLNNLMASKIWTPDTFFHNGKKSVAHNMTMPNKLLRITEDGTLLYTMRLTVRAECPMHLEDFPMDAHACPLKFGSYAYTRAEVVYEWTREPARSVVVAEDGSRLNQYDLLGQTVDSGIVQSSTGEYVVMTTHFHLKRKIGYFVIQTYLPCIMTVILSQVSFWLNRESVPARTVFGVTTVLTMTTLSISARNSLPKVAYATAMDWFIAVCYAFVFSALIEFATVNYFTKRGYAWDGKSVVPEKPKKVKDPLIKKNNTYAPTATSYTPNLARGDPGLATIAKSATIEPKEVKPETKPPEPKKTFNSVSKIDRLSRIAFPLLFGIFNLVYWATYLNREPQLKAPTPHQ
T2 sequence (P47870 25-512 limits assumed): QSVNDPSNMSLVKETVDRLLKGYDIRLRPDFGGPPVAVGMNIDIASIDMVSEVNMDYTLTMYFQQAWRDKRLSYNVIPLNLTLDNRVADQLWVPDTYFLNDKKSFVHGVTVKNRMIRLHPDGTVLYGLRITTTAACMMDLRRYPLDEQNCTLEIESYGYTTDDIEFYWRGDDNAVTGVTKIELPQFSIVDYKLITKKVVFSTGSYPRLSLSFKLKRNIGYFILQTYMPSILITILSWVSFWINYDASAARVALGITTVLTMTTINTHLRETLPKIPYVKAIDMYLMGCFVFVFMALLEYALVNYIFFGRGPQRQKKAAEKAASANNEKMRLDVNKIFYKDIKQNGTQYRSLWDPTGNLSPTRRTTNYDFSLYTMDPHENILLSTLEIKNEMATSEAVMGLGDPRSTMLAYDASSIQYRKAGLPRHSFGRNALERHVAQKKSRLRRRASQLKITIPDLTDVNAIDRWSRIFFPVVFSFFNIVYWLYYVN
T2 sequence (P18507 40-475): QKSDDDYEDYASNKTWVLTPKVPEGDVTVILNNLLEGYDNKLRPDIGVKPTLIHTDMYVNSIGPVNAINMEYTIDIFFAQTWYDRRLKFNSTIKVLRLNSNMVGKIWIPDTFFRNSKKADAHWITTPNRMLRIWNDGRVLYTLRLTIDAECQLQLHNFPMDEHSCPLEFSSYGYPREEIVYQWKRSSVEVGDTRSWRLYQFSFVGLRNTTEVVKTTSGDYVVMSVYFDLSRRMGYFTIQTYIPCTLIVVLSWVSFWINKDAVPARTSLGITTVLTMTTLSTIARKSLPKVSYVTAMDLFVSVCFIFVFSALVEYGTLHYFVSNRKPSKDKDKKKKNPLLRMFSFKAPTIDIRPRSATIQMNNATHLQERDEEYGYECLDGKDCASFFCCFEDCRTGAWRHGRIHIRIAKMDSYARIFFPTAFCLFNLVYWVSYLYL

Row | SMILES | EC50 (α4β3δ GABAA receptors) [nM] | Emax (α4β3δ GABAA receptors; CHO, relative percentage potentiation of GABA EC20 peak current, n = 3, read-out: Emax ± S.E.M., α4β3δ) [%] | Emax ± S.E.M., α4β3δ (α4β3δ GABAA receptors; [2]) [%] | GABAA-β3-containing receptors at the plasma membrane (surface β3/T-β3) ([1]; 100 nM, 20 min) | EC50 (α1β2γ2 GABAA receptors; EC50, potentiation of GABA current, α1β2γ2, GABA EC20 (2 μM)) [nM] | Emax (α1β2γ2 GABAA receptors; LTK, relative percentage potentiation of GABA EC20 peak current, read-out: Emax ± S.E.M., α1β2γ2) [%] | Emax ± S.E.M., α1β2γ2 (α1β2γ2 GABAA receptors; [3]) [%] | pEC50 ± S.E.M., α4β3δ (α4β3δ GABAA receptors; GABA EC20 (2 μM), n = 3) | EC50 (α4β3δ GABAA receptors; GABA EC20 (2 μM), n = 3, read-out: EC50, potentiation of GABA current, α4β3δ) [nM] | plasma membrane levels of GABAARs containing α4 and β3 subunits, S/T normalized to control (100%) ([1]; 100 nM, 20 min, WT mice) | plasma membrane accumulation of the α4 and β3 subunits ([1]; hippocampal slices, biotinylation) | pEC50 ± S.E.M., α1β2γ2 (α1β2γ2 GABAA receptors; GABA EC20 (2 μM)) | EC50 (α1β2γ2 GABAA receptors; GABA EC20 (2 μM), read-out: EC50, potentiation of GABA current, α1β2γ2) [nM]
1 | CC(=O)[C@H]1CC[C@H]2[C@@H]3CC[C@H]4C[C@H](O)CC[C@]4(C)[C@H]3CC[C@]12C [ALLO, Allopregnanolone] | 57 | 426 | 426 ± 42 | increases | 115 | 229 | 229 ± 19 | – | – | – | – | – | –
2 | C[C@@]1(O)CC[C@H]2[C@H](CC[C@@H]3[C@@H]2CC[C@]2(C)[C@@H](C(=O)Cn4nccn4)CC[C@@H]32)C1 [SGE-516] | – | – | 505 ± 19 | increases | – | – | 219 | 6.7 ± 0.1 | 193 | 175-185% | increased | 7.2 ± 0.3 | 61
